Data taken from US20250090695A1, “IMMUNOSTIMULANT-CYTOTOXIC CONJUGATE COMPOSITION AND METHODS FOR CANCER TREATMENT” (The Research Foundation for the State University of New York, priority 2022, published 2025).

Legend:
[1] = OLINDA dosimetry to adult male from mouse biodistribution
[2] = Biodistribution in a syngeneic model of prostate cancer with a RM1-PGLS tumor; details: C57BL/6J mice
[3] = tested on: CD8+ and CD4+ T-cell populations; assay: T-cell population analysis in spleen and tumor of RM1-PGLS bearing mice; type: in vivo; parameters: unit not given here; details: RM1-PGLS bearing C57BL/6J mice
Method: FIG. 12A-12B show graphical representations of T-cell population analysis measuring cell viability in the spleen (FIG. 12A). and in the tumor (FIG. 12B) in vivo for subjects having RM1-PGLS tumors with either an experimental ^177Lu-RIMS compound, or a control compound selected from: ^177Lu-PSMA-617, unlabeled Lu-RIMS, or a control vehicle.
^177Lu-RIMS-1 and control compounds were evaluated for immune cell recruitment.

[4] = Biodistribution in a xenograft model of prostate cancer with PC-3 PiP (PSMA(+)) and PC-3 flu (PSMA(−)) tumors; type: in vivo, Male NCr nude mice; details: PC-3 PiP/PC-3 flu xenograft, NCr nude mice
Method: Biodistribution analyses of ^177Lu-RIMS-1 and ^177Lu-PSMA-617 were carried out in a xenograft model of prostate cancer with a PC-3 PiP tumor (PSMA(+)) on the left shoulder of a murine subject, and a PC-3 flu tumor (PSMA(−)) on the right should of a murine subject. Murine subjects examined were Male NCr nude mice.

[5] = tested on: T-cells (CD3); assay: Immuno-PET ROI analysis of 89Zr-DFO-anti-CD3 after therapy (tumor infiltrating T-cells); type: in vivo, murine subjects
Method: FIG. 13A-13C describes a method and results for T-cell detection using immuno-positron emission tomography (PET).
FIG. 14A-14D show graphical representations of tumor infiltrating T-cell analysis after administration of a therapeutic compound or control. Infiltration was measured using immuno-positron emission tomography (PET).

[6] = target: T1, PSMA (Homo sapiens, UniProt Q04609); details: clinical trials; cited from earlier work
T1 construct: This has been leveraged in clinical trials using the radiotherapeutic 117Lu-PSMA-617; host or cells: tumours of prostate cancer patients
T1 sequence (Q04609 whole entry): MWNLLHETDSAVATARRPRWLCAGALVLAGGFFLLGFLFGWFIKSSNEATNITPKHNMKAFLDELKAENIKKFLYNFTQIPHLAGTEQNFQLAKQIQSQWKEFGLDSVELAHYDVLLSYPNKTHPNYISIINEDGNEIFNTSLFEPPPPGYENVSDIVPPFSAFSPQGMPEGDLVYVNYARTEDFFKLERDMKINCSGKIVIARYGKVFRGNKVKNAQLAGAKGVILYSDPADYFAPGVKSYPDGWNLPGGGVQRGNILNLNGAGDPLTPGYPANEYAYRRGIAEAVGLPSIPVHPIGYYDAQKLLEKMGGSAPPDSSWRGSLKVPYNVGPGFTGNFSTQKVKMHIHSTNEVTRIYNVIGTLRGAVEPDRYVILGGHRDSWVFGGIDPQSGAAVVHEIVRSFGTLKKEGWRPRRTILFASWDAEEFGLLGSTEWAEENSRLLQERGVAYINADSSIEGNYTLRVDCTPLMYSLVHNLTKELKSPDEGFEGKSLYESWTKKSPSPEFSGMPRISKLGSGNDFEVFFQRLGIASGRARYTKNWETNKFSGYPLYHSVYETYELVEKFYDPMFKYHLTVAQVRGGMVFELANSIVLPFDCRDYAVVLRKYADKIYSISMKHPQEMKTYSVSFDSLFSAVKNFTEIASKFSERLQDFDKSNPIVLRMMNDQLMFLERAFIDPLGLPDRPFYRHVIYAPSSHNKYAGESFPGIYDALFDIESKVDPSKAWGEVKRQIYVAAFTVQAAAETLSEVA

[7] = tested on: RM1-PGLS tumors; type: in vivo, murine subjects; details: overall survival post treatment; RM1-PGLS tumors; P < 0.0007 printed for 177Lu-RIMS-1
Method: FIG. 11A-11C show a visual schematic of RM1-PGLS tumor insertion in mice followed by T-cell population analysis (FIG. 11A), and tumor efficacy study analysis for in vivo tumor treatment with experimental ^177Lu-RIMS-1 compound compared with control compounds: ^177Lu-PSMA-617, unlabeled Lu-RIMS, and saline (FIG. 11B) measuring tumor volume (left), and percent survival (right).
Murine subjects were treated with RIMS compounds and tumor volume (FIG. 11B, left), subject viability measured as percent survival (FIG. 11B, right), subject weight (FIG. 11C), were described and analyzed as shown in FIGS. 11A-11C. Median overall survivability (OS) in murine subjects treated with RIMS compounds and control therapies.

## O=C([O-])CN1CCN(CC(=O)[O-])CCN(CC(=O)NCC2CCC(C(=O)N[C@@H](Cc3ccc4ccccc4c3)C(=O)NCCCC[C@H](NC(=O)N[C@@H](CCC(=O)O)C(=O)O)C(=O)O)CC2)CCN(CC(=O)[O-])CC1.[177Lu+3] (stereo partly shown) [^177Lu-PSMA-617]
[1]; Target Organ Adrenals
  OLINDA dosimetry to Adult Male, Adrenals: 1.32 μSv/MBq
[1]; Target Organ Brain
  OLINDA dosimetry to Adult Male, Brain: 0.00 μSv/MBq
[1]; Target Organ Esophagus
  OLINDA dosimetry to Adult Male, Esophagus: 0.25 μSv/MBq
[1]; Target Organ Eyes
  OLINDA dosimetry to Adult Male, Eyes: 0.00 μSv/MBq
[1]; Target Organ Gallbladder Wall
  OLINDA dosimetry to Adult Male, Gallbladder Wall: 0.93 μSv/MBq
[1]; Target Organ Heart Wall
  OLINDA dosimetry to Adult Male, Heart Wall: 1.57 μSv/MBq
[1]; Target Organ Kidneys
  OLINDA dosimetry to Adult Male, Kidneys: 54.70 μSv/MBq
[1]; Target Organ Left Colon
  OLINDA dosimetry to Adult Male, Left Colon: 0.18 μSv/MBq
[1]; Target Organ Liver
  OLINDA dosimetry to Adult Male, Liver: 27.80 μSv/MBq
[1]; Target Organ Lungs
  OLINDA dosimetry to Adult Male, Lungs: 2.43 μSv/MBq
[1]; Target Organ Osteogenic Cells
  OLINDA dosimetry to Adult Male, Osteogenic Cells: 0.83 μSv/MBq
[1]; Target Organ Pancreas
  OLINDA dosimetry to Adult Male, Pancreas: 0.32 μSv/MBq
[1]; Target Organ Prostate
  OLINDA dosimetry to Adult Male, Prostate: 0.10 μSv/MBq
[1]; Target Organ Rectum
  OLINDA dosimetry to Adult Male, Rectum: 0.07 μSv/MBq
[1]; Target Organ Red Marrow
  OLINDA dosimetry to Adult Male, Red Marrow: 0.10 μSv/MBq
[1]; Target Organ Right Colon
  OLINDA dosimetry to Adult Male, Right Colon: 0.27 μSv/MBq
[1]; Target Organ Salivary Glands
  OLINDA dosimetry to Adult Male, Salivary Glands: 0.01 μSv/MBq
[1]; Target Organ Small Intestine
  OLINDA dosimetry to Adult Male, Small Intestine: 1.54 μSv/MBq
[1]; Target Organ Spleen
  OLINDA dosimetry to Adult Male, Spleen: 0.25 μSv/MBq
[1]; Target Organ Stomach Wall
  OLINDA dosimetry to Adult Male, Stomach Wall: 0.23 μSv/MBq
[1]; Target Organ Thymus
  OLINDA dosimetry to Adult Male, Thymus: 0.11 μSv/MBq
[1]; Target Organ Thyroid
  OLINDA dosimetry to Adult Male, Thyroid: 0.05 μSv/MBq
[1]; Target Organ Total Body
  OLINDA dosimetry to Adult Male, Today Body: 1.13 μSv/MBq
[1]; Target Organ Tumor
  OLINDA dosimetry to Adult Male, Tumor: 145.00 μSv/MBq
[1]; Target Organ Urinary Bladder Wall
  OLINDA dosimetry to Adult Male, Urinary Bladder Wall: 7.66 μSv/MBq
[2]; 2 h
  Biodistribution Blood (% ID/g ± SD): 0.03 ± 0.02 % ID/g
  Biodistribution Bone (% ID/g ± SD): 0.05 ± 0.05 % ID/g
  Biodistribution Heart (% ID/g ± SD): 0.03 ± 0.01 % ID/g
  Biodistribution Kidney (% ID/g ± SD): 1.39 ± 0.48 % ID/g
  Biodistribution Liver (% ID/g ± SD): 0.17 ± 0.12 % ID/g
  Biodistribution Muscle (% ID/g ± SD): 0.05 ± 0.05 % ID/g
  Biodistribution RM1-PGLS tumor (% ID/g ± SD): 0.80 ± 0.18 % ID/g
  Biodistribution Sm Int (% ID/g ± SD): 0.03 ± 0.01 % ID/g
  Biodistribution Spleen (% ID/g ± SD): 0.08 ± 0.03 % ID/g
[2]; 24 h
  Biodistribution Blood (% ID/g ± SD): 0.00 ± 0.00 % ID/g
  Biodistribution Bone (% ID/g ± SD): 0.01 ± 0.01 % ID/g
  Biodistribution Heart (% ID/g ± SD): 0.01 ± 0.00 % ID/g
  Biodistribution Kidney (% ID/g ± SD): 0.09 ± 0.07 % ID/g
  Biodistribution Liver (% ID/g ± SD): 0.02 ± 0.01 % ID/g
  Biodistribution Muscle (% ID/g ± SD): 0.01 ± 0.01 % ID/g
  Biodistribution RM1-PGLS tumor (% ID/g ± SD): 0.25 ± 0.09 % ID/g
  Biodistribution Sm Int (% ID/g ± SD): 0.01 ± 0.01 % ID/g
  Biodistribution Spleen (% ID/g ± SD): 0.02 ± 0.01 % ID/g
[2]; 72 h
  Biodistribution Blood (% ID/g ± SD): 0.01 ± 0.01 % ID/g
  Biodistribution Bone (% ID/g ± SD): 0.01 ± 0.01 % ID/g
  Biodistribution Heart (% ID/g ± SD): 0.01 ± 0.00 % ID/g
  Biodistribution Kidney (% ID/g ± SD): 0.04 ± 0.01 % ID/g
  Biodistribution Liver (% ID/g ± SD): 0.02 ± 0.01 % ID/g
  Biodistribution Muscle (% ID/g ± SD): 0.01 ± 0.00 % ID/g
  Biodistribution RM1-PGLS tumor (% ID/g ± SD): 0.18 ± 0.06 % ID/g
  Biodistribution Sm Int (% ID/g ± SD): 0.02 ± 0.01 % ID/g
  Biodistribution Spleen (% ID/g ± SD): 0.02 ± 0.01 % ID/g
[3]; Spleen
  Total CD4+ T-cell population: 12.73 ± 2.17
  Total CD8+ T-cell population: 8.78 ± 1.61
[3]; Tumor
  Total CD4+ T-cell population: 1.47 ± 0.59
  Total CD8+ T-cell population: 4.76 ± 1.40
[4]; 2 h
  Biodistribution Blood (% ID/g ± SD): 0.95 ± 0.53 % ID/g
  Biodistribution Bone (% ID/g ± SD): 0.21 ± 0.11 % ID/g
  Biodistribution Heart (% ID/g ± SD): 0.27 ± 0.12 % ID/g
  Biodistribution Kidney (% ID/g ± SD): 5.12 ± 1.95 % ID/g
  Biodistribution Liver (% ID/g ± SD): 0.29 ± 0.14 % ID/g
  Biodistribution Muscle (% ID/g ± SD): 0.14 ± 0.05 % ID/g
  Biodistribution PSMA (+) (PC3-PIP) tumor (% ID/g ± SD): 11.78 ± 1.46 % ID/g
  Biodistribution PSMA (−) (PC3-Flu) tumor (% ID/g ± SD): 0.48 ± 0.2 % ID/g
  Biodistribution Sm Int (% ID/g ± SD): 0.28 ± 0.15 % ID/g
  Biodistribution Spleen (% ID/g ± SD): .027 ± 0.14 % ID/g
[4]; 24 h
  Biodistribution Blood (% ID/g ± SD): 0.21 ± 0.13 % ID/g
  Biodistribution Bone (% ID/g ± SD): 0.07 ± 0.010 % ID/g
  Biodistribution Heart (% ID/g ± SD): 0.09 ± 0.05 % ID/g
  Biodistribution Kidney (% ID/g ± SD): 0.57 ± 0.29 % ID/g
  Biodistribution Liver (% ID/g ± SD): 0.08 ± 0.040 % ID/g
  Biodistribution Muscle (% ID/g ± SD): 0.04 ± 0.010 % ID/g
  Biodistribution PSMA (+) (PC3-PIP) tumor (% ID/g ± SD): 8.24 ± 3.22 % ID/g
  Biodistribution PSMA (−) (PC3-Flu) tumor (% ID/g ± SD): 0.18 ± 0.13 % ID/g
  Biodistribution Sm Int (% ID/g ± SD): 0.06 ± 0.020 % ID/g
  Biodistribution Spleen (% ID/g ± SD): 0.08 ± 0.040 % ID/g
[4]; 72 h
  Biodistribution Blood (% ID/g ± SD): 0.03 ± 0.01 % ID/g
  Biodistribution Bone (% ID/g ± SD): 0.05 ± 0.01 % ID/g
  Biodistribution Heart (% ID/g ± SD): 0.03 ± 0.01 % ID/g
  Biodistribution Kidney (% ID/g ± SD): 0.08 ± 0.05 % ID/g
  Biodistribution Liver (% ID/g ± SD): 0.03 ± 0.01 % ID/g
  Biodistribution Muscle (% ID/g ± SD): 0.02 ± 0.01 % ID/g
  Biodistribution PSMA (+) (PC3-PIP) tumor (% ID/g ± SD): 3.65 ± 0.59 % ID/g
  Biodistribution PSMA (−) (PC3-Flu) tumor (% ID/g ± SD): 0.02 ± 0.01 % ID/g
  Biodistribution Sm Int (% ID/g ± SD): 0.03 ± 0.01 % ID/g
  Biodistribution Spleen (% ID/g ± SD): 0.04 ± 0.01 % ID/g
[5]; Blood, 8 days after administration of therapy
  % Injected Dose/cc of 89Zr-DFO-anti-CD3 (ROI): 8.94 ± 0.34 % Injected Dose/cc
[5]; Blood, 9 days after administration of therapy
  % Injected Dose/cc of 89Zr-DFO-anti-CD3 (ROI): 5.85 ± 2.22 % Injected Dose/cc
[5]; Blood, 10 days after administration of therapy
  % Injected Dose/cc of 89Zr-DFO-anti-CD3 (ROI): 4.13 ± 0.68 % Injected Dose/cc
[5]; Blood, 11 days after administration of therapy
  % Injected Dose/cc of 89Zr-DFO-anti-CD3 (ROI): 4.05 ± 1.24 % Injected Dose/cc
[5]; Blood, 12 days after administration of therapy
  % Injected Dose/cc of 89Zr-DFO-anti-CD3 (ROI): 4.26 ± 0.62 % Injected Dose/cc
[5]; Spleen, 8 days after administration of therapy
  % Injected Dose/cc of 89Zr-DFO-anti-CD3 (ROI): 21.55 ± 4.49 % Injected Dose/cc
[5]; Spleen, 9 days after administration of therapy
  % Injected Dose/cc of 89Zr-DFO-anti-CD3 (ROI): 24.84 ± 4.91 % Injected Dose/cc
[5]; Spleen, 10 days after administration of therapy
  % Injected Dose/cc of 89Zr-DFO-anti-CD3 (ROI): 27.09 ± 3.75 % Injected Dose/cc
[5]; Spleen, 11 days after administration of therapy
  % Injected Dose/cc of 89Zr-DFO-anti-CD3 (ROI): 23.82 ± 3.55 % Injected Dose/cc
[5]; Spleen, 12 days after administration of therapy
  % Injected Dose/cc of 89Zr-DFO-anti-CD3 (ROI): 24.65 ± 0.81 % Injected Dose/cc
[5]; Tumor, 8 days after administration of therapy
  % Injected Dose/cc of 89Zr-DFO-anti-CD3 (ROI): 10.27 ± 0.024 % Injected Dose/cc
[5]; Tumor, 9 days after administration of therapy
  % Injected Dose/cc of 89Zr-DFO-anti-CD3 (ROI): 7.83 ± 1.66 % Injected Dose/cc
[5]; Tumor, 10 days after administration of therapy
  % Injected Dose/cc of 89Zr-DFO-anti-CD3 (ROI): 6.67 ± 3.63 % Injected Dose/cc
[5]; Tumor, 11 days after administration of therapy
  % Injected Dose/cc of 89Zr-DFO-anti-CD3 (ROI): 3.90 ± 0.35 % Injected Dose/cc
[5]; Tumor, 12 days after administration of therapy
  % Injected Dose/cc of 89Zr-DFO-anti-CD3 (ROI): 2.72 ± 0.81 % Injected Dose/cc
[6]
  Non-responders among patients: 30%
[7]
  Median OS: 15 days
